These results are taken from US20240368092A1, “2,4-Dihydro-3H-1,2,4-Triazol-3-One P2X7 Antagonists” (Breye Therapeutics ApS, priority 2021, published 2024).

What all share (type): cell-based
One assay deals with T1, mouseP2X7 (Mus musculus, UniProt Q9Z1M0).
T1 construct: expressed in transfected cells; host or cells: HEK-293
T1 sequence (Q9Z1M0 1-595): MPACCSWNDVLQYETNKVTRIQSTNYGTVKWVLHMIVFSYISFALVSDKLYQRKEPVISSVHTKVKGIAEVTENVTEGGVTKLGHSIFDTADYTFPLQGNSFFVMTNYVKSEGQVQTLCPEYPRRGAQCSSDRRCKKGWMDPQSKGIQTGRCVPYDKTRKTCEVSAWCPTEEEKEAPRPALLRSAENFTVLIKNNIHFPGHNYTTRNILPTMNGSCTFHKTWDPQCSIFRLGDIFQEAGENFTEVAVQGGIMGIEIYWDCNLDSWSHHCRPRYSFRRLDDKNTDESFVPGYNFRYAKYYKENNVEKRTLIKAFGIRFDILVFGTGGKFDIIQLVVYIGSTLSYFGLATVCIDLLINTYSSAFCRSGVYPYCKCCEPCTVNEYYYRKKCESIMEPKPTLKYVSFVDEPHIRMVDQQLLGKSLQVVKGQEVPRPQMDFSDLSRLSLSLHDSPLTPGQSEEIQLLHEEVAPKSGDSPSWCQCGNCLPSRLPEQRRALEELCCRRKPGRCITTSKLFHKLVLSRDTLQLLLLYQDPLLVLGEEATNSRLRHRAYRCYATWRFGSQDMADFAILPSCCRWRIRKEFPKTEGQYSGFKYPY
The experiment in a line: P2X7 channel calcium-influx assay (Fluo-8, FLIPR TETRA), mouse P2X7. Particulars: HEK-293 cells stably transfected with P2X7; Bz-ATP at EC80; low divalent cation buffer; read-out: mouseP2X7 (activity range). In outline: (§1)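 HEK-293 cells stably expressing the respective species' P2X7, Fluo-8 NW loaded 1 h at RT in low divalent buffer (0.3 mM Ca2+, 0 mM Mg2+). Compound preincubated 5 min, then Bz-ATP at EC80; FLIPR calcium influx over 3 min. IC50 from % inhibition relative to reference antagonist A438079, reported as potency bins.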

For another assay, the target named is T2, human P2X7 channel (Homo sapiens, UniProt Q99572).
T2 construct: expressed in transfected cells; host or cells: HEK-293
T2 sequence (Q99572 1-595): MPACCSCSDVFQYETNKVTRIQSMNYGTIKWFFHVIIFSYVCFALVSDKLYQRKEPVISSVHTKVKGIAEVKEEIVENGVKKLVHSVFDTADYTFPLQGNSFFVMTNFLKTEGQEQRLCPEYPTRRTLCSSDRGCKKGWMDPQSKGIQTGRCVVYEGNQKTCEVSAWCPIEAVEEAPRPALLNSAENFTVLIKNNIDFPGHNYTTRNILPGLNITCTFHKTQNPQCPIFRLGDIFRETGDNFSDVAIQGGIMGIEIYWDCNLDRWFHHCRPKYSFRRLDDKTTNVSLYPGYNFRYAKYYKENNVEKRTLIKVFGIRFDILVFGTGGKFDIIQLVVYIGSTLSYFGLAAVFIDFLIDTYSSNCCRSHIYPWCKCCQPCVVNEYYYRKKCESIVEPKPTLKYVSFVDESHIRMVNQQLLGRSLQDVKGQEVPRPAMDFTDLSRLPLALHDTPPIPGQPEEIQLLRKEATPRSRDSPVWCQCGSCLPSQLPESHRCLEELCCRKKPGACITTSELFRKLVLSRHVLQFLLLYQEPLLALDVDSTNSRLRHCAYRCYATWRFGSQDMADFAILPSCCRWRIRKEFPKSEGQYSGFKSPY
As to the kind of experiment: human P2X7 channel assay by automated patch-clamp (QPatch 16X). Particulars: HEK-293 cells expressing P2X7; current evoked by 100 microM BzATP; whole-cell, held at -80 mV; read-out: human Q-Patch (activity range). Summed up: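 Whole-cell patch clamp on HEK-293 cells expressing P2X7, room temperature, held at −80 mV, CsF internal and NaCl external (pH 7.4). Currents evoked by 100 microM BzATP, four controls then with compound at 1, 10, 100 and 1000 nM; peak inward current normalized, IC50 from dose-response fit, reported as potency bins.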

A further assay has as its target T3, ratP2X7 (Rattus norvegicus, UniProt Q64663).
T3 construct: expressed in transfected cells; host or cells: HEK-293
T3 sequence (Q64663 1-595): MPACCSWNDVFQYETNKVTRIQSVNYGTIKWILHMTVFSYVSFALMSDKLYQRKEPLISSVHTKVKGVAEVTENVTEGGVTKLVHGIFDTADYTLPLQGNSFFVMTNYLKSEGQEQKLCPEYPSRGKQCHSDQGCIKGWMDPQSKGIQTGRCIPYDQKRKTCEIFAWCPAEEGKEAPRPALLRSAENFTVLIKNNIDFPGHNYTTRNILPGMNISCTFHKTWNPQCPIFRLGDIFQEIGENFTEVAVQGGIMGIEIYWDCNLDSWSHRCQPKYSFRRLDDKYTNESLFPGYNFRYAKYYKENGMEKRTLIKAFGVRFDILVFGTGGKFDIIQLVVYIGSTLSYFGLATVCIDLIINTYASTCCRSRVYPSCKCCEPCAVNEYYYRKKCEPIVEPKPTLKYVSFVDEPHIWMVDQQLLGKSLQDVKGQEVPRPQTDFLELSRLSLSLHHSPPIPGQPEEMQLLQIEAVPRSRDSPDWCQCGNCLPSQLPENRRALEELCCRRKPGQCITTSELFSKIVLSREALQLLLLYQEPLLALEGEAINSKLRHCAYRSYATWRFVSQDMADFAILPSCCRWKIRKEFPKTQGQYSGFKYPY
The experiment in a line: P2X7 channel calcium-influx assay (Fluo-8, FLIPR TETRA), rat P2X7. The conditions noted are these: HEK-293 cells stably transfected with P2X7; Bz-ATP at EC80; low divalent cation buffer; read-out: ratP2X7 (activity range). Summed up:
as §1

The next assay concerns the target T4, humanP2X7 (Homo sapiens, UniProt Q99572).
T4 construct: expressed in transfected cells; host or cells: HEK-293
T4 sequence (Q99572 1-595): T2 sequence (Q99572 1-595)
As to the kind of experiment: P2X7 channel calcium-influx assay (Fluo-8, FLIPR TETRA), human P2X7. The conditions noted are these: HEK-293 cells stably transfected with P2X7; Bz-ATP at EC80; low divalent cation buffer; read-out: humanP2X7 (activity range). In outline: as §1

Molecules are shown by their SMILES.

Turning to `Cn1nc(Cc2ccccc2F)n(CCC2CCC(F)(F)CC2)c1=O` [Example 46, 4-(2-(4,4-difluorocyclohexyl)ethyl)-5-(2-fluorobenzyl)-2-methyl-2,4-dihydro-3H-1,2,4-triazol-3-one], the IC50 at mouseP2X7 was in the range of 1 to 10 µM; at human P2X7 channel, 1 to 10 µM; on ratP2X7 it was 0.2 to 1 µM; at humanP2X7, 1 to 10 µM.
Take `Cn1nc(Cc2ccccc2F)n(CC2CCC3(CC2)CC3)c1=O` [Example 47, 5-(2-fluorobenzyl)-2-methyl-4-(spiro[2.5]octan-6-ylmethyl)-2,4-dihydro-3H-1,2,4-triazol-3-one]: the IC50 on mouseP2X7 was 1 to 10 µM; at human P2X7 channel, 0.1 to 1 µM; on ratP2X7, below 0.2 µM; on humanP2X7, 0.2 to 1 µM.
Consider `Cn1nc(Cc2ccccc2C(F)(F)F)n(CC2CCC3(CC2)CC3)c1=O` [Example 48, 2-methyl-4-(spiro[2.5]octan-6-ylmethyl)-5-(2-(trifluoromethyl)benzyl)-2,4-dihydro-3H-1,2,4-triazol-3-one], for which the IC50 was 1 to 10 µM on mouseP2X7, 0.1 to 1 µM on human P2X7 channel, below 0.2 µM at ratP2X7 and 0.2 to 1 µM at humanP2X7.
Regarding `Cn1nc(Cc2ccccc2C(F)(F)F)n(CCC2CCC(C)(C)CC2)c1=O` [Example 49, 4-(2-(4,4-dimethylcyclohexyl)ethyl)-2-methyl-5-(2-(trifluoromethyl)benzyl)-2,4-dihydro-3H-1,2,4-triazol-3-one], the IC50 on mouseP2X7 is 10 to 30 µM; at human P2X7 channel it was 1 to 10 µM; on ratP2X7 it was 10 to 30 µM; at humanP2X7 it was 1 to 10 µM.
For `O=c1n(Cc2ccccc2)nc(Cc2c(F)cccc2Cl)n1CC1CCC(F)(F)CC1` [Example 50, 2-benzyl-5-(2-chloro-6-fluorobenzyl)-4-((4,4-difluorocyclohexyl)methyl)-2,4-dihydro-3H-1,2,4-triazol-3-one], the IC50 on mouseP2X7 is below 0.2 µM; on human P2X7 channel, below 0.01 µM; on ratP2X7 it was below 0.2 µM; on humanP2X7, below 0.2 µM.
Turning to `Cn1nc(Cc2ccccc2F)n(CC2CCC(C(F)(F)F)CC2)c1=O` (stereo not shown) [Example 51, 5-(2-fluorobenzyl)-2-methyl-4-((4-(trifluoromethyl)cyclohexyl)methyl)-2,4-dihydro-3H-1,2,4-triazol-3-one], the IC50 is 1 to 10 µM at mouseP2X7, 0.1 to 1 µM at human P2X7 channel, below 0.2 µM at ratP2X7 and 0.2 to 1 µM at humanP2X7.
Regarding `Cn1nc(Cc2ccc(F)cc2Cl)n(CC2CCC(C(F)(F)F)CC2)c1=O` (stereo not shown) [Example 52, 5-(2-chloro-4-fluorobenzyl)-2-methyl-4-((4-(trifluoromethyl)cyclohexyl)methyl)-2,4-dihydro-3H-1,2,4-triazol-3-one], the IC50 on mouseP2X7 was 1 to 10 µM; at human P2X7 channel, 0.1 to 1 µM; at ratP2X7 it was below 0.2 µM; on humanP2X7, 0.2 to 1 µM.
For the compound `Cn1nc(Cc2c(F)cccc2Cl)n(CCO)c1=O` [Example 53, 5-(2-chloro-6-fluorobenzyl)-4-(2-hydroxyethyl)-2-methyl-2,4-dihydro-3H-1,2,4-triazol-3-one], the IC50 lay within 10 to 30 µM at mouseP2X7, 1 to 10 µM at human P2X7 channel, 10 to 30 µM at ratP2X7 and 10 to 30 µM on humanP2X7.
For `Cn1nc(Cc2ccccc2Cl)n(CC2CCCCCC2)c1=O` [Example 55, 5-[(2-chlorophenyl)methyl]-4-(cycloheptylmethyl)-2-methyl-2,4-dihydro-3H-1,2,4-triazol-3-one], the IC50 at mouseP2X7 was 1 to 10 µM; at human P2X7 channel, 0.1 to 1 µM; on ratP2X7 it was below 0.2 µM; on humanP2X7, 0.2 to 1 µM.
On to `Cn1nc(Cc2c(F)cccc2Cl)n(CC2(C)CCCCCC2)c1=O` [Example 56, 5-[(2-chloro-6-fluorophenyl)methyl]-2-methyl-4-[(1-methylcycloheptyl)methyl]-2,4-dihydro-3H-1,2,4-triazol-3-one], for which the IC50 fell in the range of 10 to 30 µM at mouseP2X7, 1 to 10 µM on human P2X7 channel, 1 to 10 µM at ratP2X7 and 1 to 10 µM at humanP2X7.
On to `O=c1n(CCC(F)(F)F)nc(Cc2c(F)cccc2Cl)n1CC1CCC(F)(F)CC1` [Example 57, 5-[(2-chloro-6-fluorophenyl)methyl]-4-[(4,4-difluorocyclohexyl)methyl]-2-(3,3,3-trifluoropropyl)-2,4-dihydro-3H-1,2,4-triazol-3-one], for which the IC50 at mouseP2X7 is below 0.2 µM; on human P2X7 channel, 0.01 to 0.1 µM; on ratP2X7, below 0.2 µM; on humanP2X7, below 0.2 µM.
Consider `O=c1n(CC(F)F)nc(Cc2c(F)cccc2Cl)n1CC1CCC(F)(F)CC1` [Example 58, 5-[(2-chloro-6-fluorophenyl)methyl]-4-[(4,4-difluorocyclohexyl)methyl]-2-(2,2-difluoroethyl)-2,4-dihydro-3H-1,2,4-triazol-3-one], for which the IC50 at mouseP2X7 was below 0.2 µM; on human P2X7 channel, 0.01 to 0.1 µM; at ratP2X7, below 0.2 µM; at humanP2X7, below 0.2 µM.
On to `CCn1nc(CC2CCCCCC2)n(Cc2c(F)cccc2Cl)c1=O` [Example 60, 4-[(2-chloro-6-fluorophenyl)methyl]-5-(cycloheptylmethyl)-2-ethyl-2,4-dihydro-3H-1,2,4-triazol-3-one], for which the IC50 on mouseP2X7 is 1 to 10 µM; at human P2X7 channel, 0.1 to 1 µM; at ratP2X7, below 0.2 µM; on humanP2X7, 0.2 to 1 µM.
Turning to `O=c1n(CC(F)(F)F)nc(CC2CCCCCC2)n1Cc1c(F)cccc1Cl` [Example 61, 4-[(2-chloro-6-fluorophenyl)methyl]-5-(cycloheptylmethyl)-2-(2,2,2-trifluoroethyl)-2,4-dihydro-3H-1,2,4-triazol-3-one], the IC50 on mouseP2X7 is 1 to 10 µM; at human P2X7 channel, 0.1 to 1 µM; on ratP2X7, below 0.2 µM; at humanP2X7, 0.2 to 1 µM.
As for `O=c1n(CC(F)(F)F)nc(Cc2ccccc2Cl)n1CC1CCC(F)(F)CC1` [Example 62, 5-[(2-chlorophenyl)methyl]-4-[(4,4-difluorocyclohexyl)methyl]-2-(2,2,2-trifluoroethyl)-2,4-dihydro-3H-1,2,4-triazol-3-one], the IC50 was below 0.2 µM at mouseP2X7, below 0.01 µM on human P2X7 channel, below 0.2 µM on ratP2X7 and below 0.2 µM on humanP2X7.
Turning to `CCn1nc(Cc2ccccc2Cl)n(CC2CCC(F)(F)CC2)c1=O` [Example 63, 5-[(2-chlorophenyl)methyl]-4-[(4,4-difluorocyclohexyl)methyl]-2-ethyl-2,4-dihydro-3H-1,2,4-triazol-3-one], the IC50 is 0.2 to 1 µM on mouseP2X7, 0.01 to 0.1 µM on human P2X7 channel, below 0.2 µM at ratP2X7 and below 0.2 µM at humanP2X7.
